Data as given in patent publication US20110251134A1, “COMBINATION OF (A) A DNA TOPOSOMERASE INHIBITOR AND (B) AN IAP INHIBITOR” (priority 2004, published 2011).

Legend:
[1] = tested on: melanoma model; experiment: growth in a melanoma model; assay type: cell-based
[2] = tested on: caspase-3; experiment: caspase-3 activity in a breast tumor model; assay type: cell-based
Protocol: In a breast tumor model, both compound C and topotecan (1 nM) individually increase caspase-3 activity less than two fold over the control. A nearly twelve fold increase in caspase-3 activity is seen with the same amount of compound C at a concentration of about 1 nM topotecan.

For `CC[C@@]1(O)C(=O)OCc2c1cc1n(c2=O)Cc2cc3ccccc3nc2-1` [camptothecin, Camptothecin], the growth ([1]; camptothecin 5 nM alone) was “about 50 % of control”.
In the case of `CN[C@@H](C)C(=O)N[C@H](C(=O)N1C[C@@H](NC(=O)CC2CCCCC2)C[C@H]1C(=O)NCCc1ccccc1)C(C)C` [compound C], the “increase in caspase-3 activity over the control” value ([2]; compound C alone) is reported as “less than two”.
For `CN[C@@H](C)C(=O)N[C@H](C(=O)N1CCC[C@H]1C(=O)NC(Cc1ccccc1)Cc1ccccc1)C(C)C` [compound D], the growth ([1]; compound D 250 nM alone) was “about 90 % of control”.
With `CC[C@@]1(O)C(=O)OCc2c1cc1n(c2=O)Cc2cc3c(CN(C)C)c(O)ccc3nc2-1` [topotecan] the “increase in caspase-3 activity over the control” value ([2]; topotecan 1 nM alone) was “less than two”.
